Test results reported in ChEMBL document CHEMBL3400081, “Exploration of benzamidochromenone derivatives with conformational restrictor as interleukin-5 inhibitors” (Bioorg Med Chem, 2015).

Target: T1, Interleukin-5 (Mus musculus) (UniProt P04401)
T1 sequence (whole entry): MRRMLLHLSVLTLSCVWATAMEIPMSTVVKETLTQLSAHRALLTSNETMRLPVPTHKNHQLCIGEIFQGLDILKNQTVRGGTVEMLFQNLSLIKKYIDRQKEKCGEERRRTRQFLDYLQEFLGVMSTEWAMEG
Test: Inhibition of mouse IL5-mediated mouse Y16 cell proliferation at 30 uM after 48 hrs by WST1 assay

| inhibition [%] | SMILES |
| --- | --- |
| 75 | CC(=O)OCc1c(-c2ccccc2)oc2ccc(NC(=O)C3CCCCC3)cc2c1=O |
| 5 | CC(=O)OCc1c(C2CCCCC2)oc2ccc(NS(=O)(=O)c3ccccc3)cc2c1=O |
| 25 | CC(=O)OCc1c(C2CCCCC2)oc2ccc(NC(=O)Nc3ccccc3)cc2c1=O |
| 9 | O=C(Nc1ccc2oc(C3CCCCC3)c(CO)c(=O)c2c1)C1CCCCC1 |
| 95 | CC(=O)OCc1c(C2CCCCC2)oc2ccc(NC(=O)c3ccccc3)cc2c1=O |
| 78 | CC(=O)OCc1c(C2CCCCC2)oc2ccc(NCc3ccccc3)cc2c1=O |
| 80 | CC(=O)OCc1c(C2CCCCC2)oc2ccc(NC(=O)C3CCCCC3)cc2c1=O |

Further lines, the molecule ahead of its results:

| SMILES | inhibition [%] |
| --- | --- |
| CC(=O)OCc1c(-c2ccccc2)oc2ccc(NC(=O)c3ccccc3)cc2c1=O | 79 |
| O=C(Nc1ccc2oc(-c3ccccc3)c(CO)c(=O)c2c1)c1cnccn1 | 23 |
| O=C(Nc1ccc2oc(-c3ccccc3)c(CO)c(=O)c2c1)C1CCCCC1 | 35 |
| O=C(Nc1ccc2oc(-c3ccccc3)c(CO)c(=O)c2c1)c1ccccc1 | 71 |
| CC(=O)OCc1c(-c2ccc(F)cc2)oc2ccc(NC(=O)c3ccccc3)cc2c1=O | 12 |
| CC(=O)OCc1c(-c2ccccc2)oc2ccc(NC(=O)c3cnccn3)cc2c1=O | 15 |
| CC(C)(C)C(=O)OCc1c(C2CCCCC2)oc2ccc(NC(=O)c3ccccc3)cc2c1=O | 5 |
| O=C(Nc1ccc2oc(C3CCCCC3)c(CO)c(=O)c2c1)c1ccccc1 | 90 |
| O=C(Nc1ccc2oc(-c3ccc(F)cc3)c(CO)c(=O)c2c1)c1ccccc1 | 19 |
| CC(C)C(=O)OCc1c(C2CCCCC2)oc2ccc(NC(=O)c3ccccc3)cc2c1=O | 71 |
